Read-outs that look alike come from different tables or passages of the source.
Tests used:
ATB200 = ATB200 (Homo sapiens, UniProt P10253, H199R/R223H/V780I); experiment: Stabilization of ATB200 by miglustat; conditions: neutral pH of plasma
[1] = Phase 1/2 study: plasma miglustat pharmacokinetics; assay type: in vivo, human; conditions: for half-life / Vd/F / AUC(0-inf) / AUC(0-t) / Cmax / Tmax: both sexes, human, plasma, po; for half-life / Vd/F / AUC(0-inf) / AUC(0-t) / Cmax / Tmax / CL/F: plasma miglustat; for half-life / Vd/F / CL/F: arithmetic mean; for Vd/F: read-out: Vz/F; for AUC(0-inf) / AUC(0-t) / Cmax: geometric mean; for Tmax: median
Procedure: (§1) Mean total GAA protein and miglustat PK results from the first 8 Cohort 1 patients through Visit 9 and the first 2 Cohort 3 patients were assessed.

[2] = tested on: normal and Pompe fibroblast cell lines; experiment: Cellular uptake of rhGAA by fibroblasts (16-hr incubation, 4MU-α-Glucoside hydrolysis); assay type: cell-based; conditions: for concentration that saturates cellular receptors: normal and Pompe fibroblasts, 16-hr incubation
Procedure: The relative cellular uptake of ATB200 and Lumizyme® rhGAA were compared using normal and Pompe fibroblast cell lines. […] After 16-hr incubation, external rhGAA was inactivated with TRIS base and cells were washed 3-times with PBS prior to harvest. Internalized GAA measured by 4MU-α-Glucoside hydrolysis and was graphed relative to total cellular protein and the results appear in FIGS. 13A-13B.

Gaa knockout mice [3] = experiment: Glycogen reduction in Gaa knockout mice, two IV bolus administrations; assay type: in vivo, mouse
From the text: Animals were given two IV bolus administrations (every other week); tissues were harvested two weeks after the last dose and analyzed for acid α-glucosidase activity and glycogen content.

[4] = tested on: Pompe fibroblasts and skeletal muscle myoblasts; experiment: Internalization by Pompe fibroblasts and skeletal muscle myoblasts; assay type: cell-based
[5] = tested on: adults with Pompe disease; experiment: Phase 1/2 study: safety; assay type: in vivo, human; conditions: no infusion-associated reactions to date
Procedure: as §1

CIMPR [6] = molecular target: T1, CIMPR (Homo sapiens, UniProt P11717); experiment: CIMPR plate binding assay
T1 sequence (P11717 41-2491, species assumed): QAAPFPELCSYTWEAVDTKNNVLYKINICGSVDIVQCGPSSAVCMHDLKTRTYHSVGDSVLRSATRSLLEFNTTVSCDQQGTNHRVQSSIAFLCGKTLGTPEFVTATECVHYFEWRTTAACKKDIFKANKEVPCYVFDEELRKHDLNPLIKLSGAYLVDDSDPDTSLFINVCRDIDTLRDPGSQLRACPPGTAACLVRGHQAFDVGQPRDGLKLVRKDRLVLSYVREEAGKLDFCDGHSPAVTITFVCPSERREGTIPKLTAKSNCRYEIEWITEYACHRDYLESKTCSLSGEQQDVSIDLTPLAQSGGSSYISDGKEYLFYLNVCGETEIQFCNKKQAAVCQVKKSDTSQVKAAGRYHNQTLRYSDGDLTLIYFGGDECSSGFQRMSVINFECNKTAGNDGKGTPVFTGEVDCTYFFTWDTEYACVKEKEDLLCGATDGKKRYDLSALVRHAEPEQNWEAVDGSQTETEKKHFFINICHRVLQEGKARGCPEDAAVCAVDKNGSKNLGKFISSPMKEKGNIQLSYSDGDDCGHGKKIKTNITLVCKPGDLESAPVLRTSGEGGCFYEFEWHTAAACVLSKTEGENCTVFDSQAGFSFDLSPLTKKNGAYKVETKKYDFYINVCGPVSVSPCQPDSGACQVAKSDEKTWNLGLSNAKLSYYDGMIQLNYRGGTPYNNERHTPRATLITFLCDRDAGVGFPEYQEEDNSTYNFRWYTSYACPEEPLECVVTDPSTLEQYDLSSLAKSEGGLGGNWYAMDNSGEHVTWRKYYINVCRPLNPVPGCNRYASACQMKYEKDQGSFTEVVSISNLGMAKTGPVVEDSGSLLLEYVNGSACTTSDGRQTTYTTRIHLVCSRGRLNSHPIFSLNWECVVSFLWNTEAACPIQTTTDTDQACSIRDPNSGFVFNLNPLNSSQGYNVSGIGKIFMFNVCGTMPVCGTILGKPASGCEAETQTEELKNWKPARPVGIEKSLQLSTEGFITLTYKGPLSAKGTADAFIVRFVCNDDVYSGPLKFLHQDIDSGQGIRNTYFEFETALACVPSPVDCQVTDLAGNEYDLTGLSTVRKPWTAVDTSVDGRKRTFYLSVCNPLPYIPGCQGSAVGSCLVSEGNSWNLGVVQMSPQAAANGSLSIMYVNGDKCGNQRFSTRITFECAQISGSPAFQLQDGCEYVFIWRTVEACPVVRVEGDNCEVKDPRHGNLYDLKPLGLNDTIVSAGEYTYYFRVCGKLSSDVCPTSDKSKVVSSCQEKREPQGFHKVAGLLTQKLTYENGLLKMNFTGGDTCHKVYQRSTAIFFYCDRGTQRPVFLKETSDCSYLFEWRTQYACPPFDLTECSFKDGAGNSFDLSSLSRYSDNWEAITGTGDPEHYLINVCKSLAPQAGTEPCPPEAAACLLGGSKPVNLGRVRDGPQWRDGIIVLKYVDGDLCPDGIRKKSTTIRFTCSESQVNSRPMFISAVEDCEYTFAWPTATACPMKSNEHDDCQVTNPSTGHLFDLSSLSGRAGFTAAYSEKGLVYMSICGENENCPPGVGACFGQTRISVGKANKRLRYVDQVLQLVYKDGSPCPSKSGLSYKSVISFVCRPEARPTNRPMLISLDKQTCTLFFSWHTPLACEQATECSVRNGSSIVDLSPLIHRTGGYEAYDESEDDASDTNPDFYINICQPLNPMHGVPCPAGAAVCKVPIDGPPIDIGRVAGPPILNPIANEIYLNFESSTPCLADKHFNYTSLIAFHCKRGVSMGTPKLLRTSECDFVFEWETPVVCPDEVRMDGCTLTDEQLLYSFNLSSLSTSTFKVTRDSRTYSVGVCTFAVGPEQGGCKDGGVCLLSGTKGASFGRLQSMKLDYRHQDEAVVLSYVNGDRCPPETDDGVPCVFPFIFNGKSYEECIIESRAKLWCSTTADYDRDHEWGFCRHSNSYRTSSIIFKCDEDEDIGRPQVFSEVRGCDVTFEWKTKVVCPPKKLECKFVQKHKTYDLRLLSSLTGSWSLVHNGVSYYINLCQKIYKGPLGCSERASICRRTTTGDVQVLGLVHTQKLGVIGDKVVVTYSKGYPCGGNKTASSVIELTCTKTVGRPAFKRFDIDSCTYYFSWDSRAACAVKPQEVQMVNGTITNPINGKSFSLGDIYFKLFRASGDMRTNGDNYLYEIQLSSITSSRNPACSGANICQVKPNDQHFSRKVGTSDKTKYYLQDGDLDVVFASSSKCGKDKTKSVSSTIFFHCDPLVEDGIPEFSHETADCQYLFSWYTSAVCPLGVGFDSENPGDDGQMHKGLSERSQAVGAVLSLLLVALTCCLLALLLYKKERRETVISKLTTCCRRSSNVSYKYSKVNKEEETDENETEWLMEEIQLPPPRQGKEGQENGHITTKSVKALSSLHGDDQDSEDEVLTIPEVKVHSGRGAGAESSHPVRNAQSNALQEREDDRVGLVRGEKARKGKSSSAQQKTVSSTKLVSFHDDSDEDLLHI
Procedure: In addition to having a greater percentage of rhGAA that can bind to the CIMPR, it is important to understand the quality of that interaction. […] Briefly, CIMPR-coated plates were used to capture GAA. Varying concentrations of rhGAA were applied to the immobilized receptor and unbound rhGAA was washed off. The amount of remaining rhGAA was determined by GAA activity.

[7] = Apparent plasma half-life in vivo
GAA KO mice [8] = experiment: Muscle function in Gaa-knockout mice, longer-term studies; assay type: in vivo, mouse
GAA KO mice [9] = experiment: Glycogen clearance in GAA KO mice, 4 injections with or without miglustat (FIG. 15); assay type: in vivo, mouse; conditions: rhGAA 20 mg/kg IV every other week, miglustat 10 mg/kg PO 30 min prior where co-administered, 14 days after last dose
From the text: Tissues were collected 14 days after last enzyme dose for glycogen measurement.

[10] = Phase 1/2 study: plasma total GAA protein pharmacokinetics; design: species or system human; conditions: in vivo
Gaa knockout mice [11] = experiment: Muscle physiology and morphology in Gaa-knockout mice; assay type: in vivo, mouse; conditions: rhGAA 20 mg/kg IV every other week; miglustat 10 mg/kg oral 30 mins prior; compared to alglucosidase alfa
Procedure: Control mice were treated with vehicle alone. Soleus, quadriceps and diaphragm tissue is harvested two weeks after the last dose of recombinant human acid α-glucosidase. […] Semi-thin sections of quadriceps muscle embedded in epoxy resin (Epon) were stained with methylene blue and observed by […] (1000×) to determine the extent of the presence of vacuoles. […] Control mice were treated with vehicle alone. Cardiac muscle tissue was harvested two weeks after the last dose of recombinant human acid α-glucosidase and analyzed for glycogen levels, by staining with periodic acid-Schiff reagent (PAS), and for lysosome proliferation, by measuring levels of LAMP1.

CIMPR [12] = molecular target: T1, CIMPR; experiment: CIMPR affinity chromatography of rhGAA (bound vs unbound GAA activity); assay type: binding; conditions: for CIMPR binding compared with ATB200 rhGAA: FIGS. 4A, 4B, 7A, 7B; for rhGAA bound to CIMPR / containing M6P (eluted with M6P) / rhGAA that did not bind to the CIMPR (GAA activity eluted prior to addition of M6P): fraction of total enzyme by GAA activity
Procedure: To evaluate the ability of the rhGAA in Myozyme® and Lumizyme®, the only currently approved treatments for Pompe disease, these rhGAA preparations were injected onto a CIMPR column (which binds rhGAA having M6P groups) and subsequently eluted with a free […] gradient. Fractions were collected in 96-well plate and GAA activity assayed by 4MU-α-glucose substrate. The relative amounts of bound and unbound rhGAA were determined based on GAA activity and reported as the fraction of total enzyme.
Multiple batches of the rhGAA according to the invention were produced in shake flasks and in perfusion bioreactors using CHO cell line GA-ATB-200 and CIMPR binding was measured.

[13] = tested on: subjects with Pompe disease; conditions: cited from earlier work
[14] = 130 mg, Low (about 130 mg oral) MD
[15] = 130 mg, Low (about 130 mg oral) SD
[16] = 260 mg, High (about 260 mg oral) MD
[17] = 260 mg, High (about 260 mg oral) SD

CCCCN1C[C@H](O)[C@@H](O)[C@H](O)[C@H]1CO [miglustat, (2R,3R,4R,5S)-1-butyl-2-(hydroxymethyl)piperidine-3,4,5-triol]
effect on unfolded ATB200 protein / active conformation (ATB200): decrease the percentage of unfolded ATB200 protein | dose proportionality of plasma miglustat ([1]; 130 mg and 260 mg oral): dose-proportional kinetics | half-life [1, 14]: 5.9 h | Vd/F [1, 14]: 86.7 L | AUC(0-inf) [1, 14]: 13100 ng·h/mL | AUC(0-t) [1, 14]: 12300 ng·h/mL | Cmax [1, 14]: 1520 ng/mL | Tmax [1, 14]: 3 h | half-life [1, 15]: 5.6 h | Vd/F [1, 15]: 85.8 L | AUC(0-inf) [1, 15]: 12600 ng·h/mL | AUC(0-t) [1, 15]: 11800 ng·h/mL | Cmax [1, 15]: 1490 ng/mL | Tmax [1, 15]: 3.5 h | half-life [1, 16]: 5.3 h | Vd/F [1, 16]: 81 L | AUC(0-inf) [1, 16]: 26000 ng·h/mL | AUC(0-t) [1, 16]: 25000 ng·h/mL | Cmax [1, 16]: 3570 ng/mL | Tmax [1, 16]: 3 h | half-life [1, 17]: 5.7 h | Vd/F [1, 17]: 86.3 L | AUC(0-inf) [1, 17]: 25900 ng·h/mL | AUC(0-t) [1, 17]: 24000 ng·h/mL | Cmax [1, 17]: 3060 ng/mL | Tmax [1, 17]: 3.5 h | CL/F ([1]; High (about 260 mg oral) MD): 10.3 L/h | CL/F ([1]; High (about 260 mg oral) SD): 10.6 L/h | CL/F ([1]; Low (about 130 mg oral) MD): 10.2 L/h | CL/F ([1]; Low (about 130 mg oral) SD): 10.6 L/h

ATB200: recombinant human acid α-glucosidase with high M6P content, expressed in CHO cells, described in co-pending application PCT/US2015/053252
internalization into normal and Pompe fibroblast cells ([2]; compared with Lumizyme® rhGAA): internalized to a greater degree than conventional Lumizyme® rhGAA | concentration that saturates cellular receptors [2]: about 20 nM | depletion of tissue glycogen (Gaa knockout mice [3]; 5, 10 and 20 mg/kg, two IV bolus every other week, tissues two weeks after last dose): dose-dependent fashion | reduction of glycogen levels in skeletal muscles (Gaa knockout mice [3]; 10 and 20 mg/kg, compared to Lumizyme® 20 mg/kg): significantly better reduction of glycogen levels | Kuptake [4]: 7 to 14 nM | safety and tolerability overall [5]: safe and well tolerated | CIMPR binding compared with Lumizyme® (CIMPR [6]; FIG. 12A): bound to CIMPR significantly better than Lumizyme® | Kd (CIMPR [6]; M6P receptor plate binding assays): 2 to 4 nM | apparent plasma half-life (t1/2) [7]: ~0.75 h | intracellular accumulation of dystrophin (GAA KO mice [8]; 6 months of administration, comparison with Lumizyme®): lowered intracellular accumulation of dystrophin | relative reduction of glycogen in quadriceps and triceps skeletal muscle (GAA KO mice [9]): greater reduction of glycogen than Lumizyme® | volume of distribution (in words) ([10]; human): relatively high volume of distribution | AUC0-∞ ([10]; human, 5 mg/kg): 218 ng·h/mL | AUC(0-t) ([10]; human, 5 mg/kg): 215 ng·h/mL | Cmax ([10]; human, 5 mg/kg): 61 ng/mL | Tmax ([10]; human, 5 mg/kg): 3.8 h | Vss ([10]; human, 5 mg/kg): 4.62 L | αt1/2 ([10]; human, 5 mg/kg): 1.1 h | βt1/2 ([10]; human, 5 mg/kg): 1.9 h | AUC0-∞ ([10]; human, 10 mg/kg): 584 ng·h/mL | AUC(0-t) ([10]; human, 10 mg/kg): 578 ng·h/mL | Tmax ([10]; human, 10 mg/kg): 4.0 h | αt1/2 ([10]; human, 10 mg/kg): 1.6 h | βt1/2 ([10]; human, 10 mg/kg): 1.6 h | AUC0-∞ ([10]; human, 20 mg/kg): 1512 ng·h/mL | AUC(0-t) ([10]; human, 20 mg/kg): 1508 ng·h/mL | Tmax ([10]; human, 20 mg/kg): 4.0 h | αt1/2 ([10]; human, 20 mg/kg): 1.5 h | βt1/2 ([10]; human, 20 mg/kg): 2.1 h | CLT ([10]; 5 mg/kg): 2.1 L/h | CLT ([10]; 10 mg/kg): 1.59 L/h | CLT ([10]; 20 mg/kg): 1.22 L/h | lysosome proliferation (LAMP1) in heart, diaphragm and soleus (Gaa knockout mice [11]): reduction in lysosome proliferation | punctate glycogen levels (PAS) in heart and soleus (Gaa knockout mice [11]): reduction in punctate glycogen levels

Lumizyme®: conventional rhGAA product (alglucosidase alfa) marketed by Genzyme
uptake efficiency constant (Kuptake) ([2]; extrapolated from uptake curves, FIG. 13C): 56 nM | concentration that saturates cellular receptors [2]: about 250 nM | functional muscle strength (grip strength and wire hang tests) (GAA KO mice [8]; 12 biweekly administrations, ERT 20 mg/kg, miglustat 10 mg/kg, from baseline): decline | CIMPR binding compared with ATB200 rhGAA (CIMPR [12]): significantly less CIMPR binding | rhGAA bound to CIMPR / containing M6P (eluted with M6P) (CIMPR [12]): 22% | rhGAA that did not bind to the CIMPR (GAA activity eluted prior to addition of M6P) (CIMPR [12]): 78%

[199-arginine,223-histidine]prepro-α-glucosidase (human) [alglucosidase alfa]
survival in infantile onset Pompe disease ([13]; compared to historical controls): significantly improve survival | effect on 6-Minute Walk Test (6MWT) and forced vital capacity (FVC) in late onset Pompe disease ([13]; compared to placebo): statistically significant, if modest, effect | apparent plasma half-life (t1/2) [7]: ~1 h

Myozyme®: conventional rhGAA product (alglucosidase alfa) marketed by Genzyme
CIMPR binding compared with ATB200 rhGAA (CIMPR [12]): significantly less CIMPR binding | rhGAA bound to CIMPR / containing M6P (eluted with M6P) (CIMPR [12]): 27% | rhGAA that did not bind to the CIMPR (GAA activity eluted prior to addition of M6P) (CIMPR [12]): 73%

Source: US11441138B2, “Method for selection of high M6P recombinant proteins” (Amicus Therapeutics, Inc., priority 2016, dated 2022)
